According to ChEMBL document CHEMBL1129919, “Cyclic homopentapeptides 1. Analogs of tuberactinomycins and capreomycin with activity against vancomycin-resistant enterococci and Pasteurella” (1997):
≈ marks a conversion by molar mass, not a printed value. *1 amine or outer side, *2 acyl side, *3 side chain or, on linkers, in order; H or OH if unused. Where a SMILES comes first, the peptide text is derived from it. Bridges are numbered along the chain shown (N, C = ends). Side-chain parts run from the residue outwards. [ ]: non-standard residue; d: D form. The star is where a group is joined. ξ: configuration not given here. NH(4-cHex-phenyl) = c1cc(C2CCCCC2)ccc1N*; X4 = NC1=NCCC([C@H](N[*:1])C(=O)[*:2])N1; ΔAla(Z-3-ureido) = NC(=O)N/C=C(\N)C(=O)O; ΔDap(Z) = O=C(/C(=C/N[*:3])N[*:1])[*:2]; X6 = c1ccc(Cc2ccc(N*)cc2)cc1; β3hOrn = NCCC[C@H](N)CC(=O)*; X7 = c1cc(N2CCCCC2)ccc1N*; Dap = NC[C@H](N)C(=O)O; CO = O=C([*:1])[*:2]; X5 = Clc1cc(N*)ccc1I; ξDap = NCC(N)C(=O)O

Tests used:
Assay type in all cases: functional
[1] = tested on: Enterococcus faecalis; test: In vitro antibacterial activity against Enterococcus faecalis (vancomycin, methicillin and ciprofloxacin resistant), expressed as minimum inhibitory concentration (MIC)
[2] = tested on: Mus musculus; test: In vivo activity against Escherichia coli in mice after subcutaneous administration; Range is 8-10 mg/kg; conditions: sc, read-out: PD50
[3] = tested on: Staphylococcus aureus; test: In vitro antibacterial activity against methicillin-resistant Staphylococcus aureus (MRSA), expressed as minimum inhibitory concentration (MIC)
[4] = tested on: Enterococcus faecium; test: In vitro antibacterial activity against Enterococcus faecium (vancomycin, methicillin and ciprofloxacin resistant), expressed as minimum inhibitory concentration (MIC).
[5] = tested on: Pasteurella multocida; test: In vitro antibacterial activity against Pasteurella multocida, expressed as minimum inhibitory concentration (MIC)
[6] = tested on: Escherichia coli; test: In vitro antibacterial activity against Escherichia coli, expressed as minimum inhibitory concentration (MIC)
[7] = tested on: Mus musculus; test: In vivo activity against Pasteurella multocida in mice after subcutaneous administration; Range is 8-10 mg/kg; conditions: sc, read-out: PD50
[8] = tested on: Mus musculus; test: In vivo activity against Pasteurella multocida in mice after subcutaneous administration; conditions: sc, read-out: PD50
[9] = tested on: Enterococcus faecium; test: Protective dose against both MRSA and vancomycin-resistant Enterococcus faecium.; conditions: read-out: PD50
[10] = tested on: Mus musculus; test: In vivo activity against Pasteurella multocida in mice; conditions: read-out: PD50
[11] = tested on: Enterococcus faecalis; test: In vitro antibacterial activity against E. faecalis( vancomycin, methicillin and ciprofloxacin resistant), expressed as minimum inhibitory concentration (MIC)

Row | SMILES | MIC [1] | ED50 [2] | MIC [3] | MIC [4] | MIC [5] | MIC [6] | ED50 [7] | ED50 [8] | ED50 [9] | ED50 [10] | MIC [11]
1 | NCCC[C@H](N)CC(=O)NC1CNC(=O)[C@H](C2C[C@@H](O)N=C(N)N2)NC(=O)/C(=C/Nc2ccc(Cl)c(Cl)c2)NC(=O)[C@H](CO)NC(=O)[C@H](CO)NC1=O (stereo partly drawn) | 50 µg/mL (≈ 63.5 µM) | 10 mg/kg | 12.5 µg/mL (≈ 15.9 µM) | 25 µg/mL (≈ 31.7 µM) | 0.78 µg/mL (≈ 0.99 µM) | 12.5 µg/mL (≈ 15.9 µM) | 10 mg/kg | – | – | – | –
2 | C[C@@H]1NC(=O)C(N)CNC(=O)[C@H](C2CCN=C(N)N2)NC(=O)/C(=C/Nc2ccc(C3CCCCC3)cc2)NC(=O)[C@H](CNC(=O)C[C@@H](N)CCCN)NC1=O.NCCC[C@H](N)CC(=O)NC[C@@H]1NC(=O)[C@H](CO)NC(=O)C(N)CNC(=O)[C@H](C2CCN=C(N)N2)NC(=O)/C(=C/Nc2ccc(C3CCCCC3)cc2)NC1=O (stereo partly drawn) | 12.5 µg/mL | – | 1.56 µg/mL | 6.25 µg/mL | 0.2 µg/mL | 6.25 µg/mL | – | 2 mg/kg | – | – | –
3 | C[C@@H]1NC(=O)C(N)CNC(=O)[C@H](C2CCN=C(N)N2)NC(=O)/C(=C/Nc2ccc(Cl)c(Cl)c2)NC(=O)[C@H](CNC(=O)C[C@@H](N)CCCN)NC1=O.NCCC[C@H](N)CC(=O)NC[C@@H]1NC(=O)[C@H](CO)NC(=O)C(N)CNC(=O)[C@H](C2CCN=C(N)N2)NC(=O)/C(=C/Nc2ccc(Cl)c(Cl)c2)NC1=O (stereo partly drawn) | 25 µg/mL | – | 0.78 µg/mL | 12.5 µg/mL | 0.39 µg/mL | 6.25 µg/mL | – | 6 mg/kg | – | – | –
4 | NCC[C@@H](O)[C@H](N)CC(=O)NC1CNC(=O)[C@@H](C2CCN=C(N)N2)NC(=O)/C(=C/NC(=O)Nc2ccc(C3CCCC3)cc2Cl)NC(=O)[C@@H](CO)NC(=O)[C@@H](CO)NC1=O (stereo partly drawn) | 6.25 µg/mL (≈ 7.23 µM) | – | 3.12 µg/mL (≈ 3.61 µM) | 3.12 µg/mL (≈ 3.61 µM) | – | – | – | – | – | – | –
5 | NCCC[C@H](N)CC(=O)NC[C@@H]1NC(=O)[C@H](CO)NC(=O)C(N)CNC(=O)[C@H](C2CCN=C(N)N2)NC(=O)/C(=C/NC(=O)Nc2cc(Cl)c(Cl)c(Cl)c2)NC1=O (stereo partly drawn) | 3.12 µg/mL (≈ 3.68 µM) | – | 0.78 µg/mL (≈ 0.92 µM) | 1.56 µg/mL (≈ 1.84 µM) | 0.2 µg/mL (≈ 0.236 µM) | 12.5 µg/mL (≈ 14.7 µM) | – | – | 3 mg/kg | 4 mg/kg | –
6 | C[C@@H]1NC(=O)C(N)CNC(=O)[C@H](C2CCN=C(N)N2)NC(=O)/C(=C/Nc2nc(-c3ccc(Br)cc3)cs2)NC(=O)[C@H](CNC(=O)C[C@@H](N)CCCN)NC1=O.NCCC[C@H](N)CC(=O)NC[C@@H]1NC(=O)[C@H](CO)NC(=O)C(N)CNC(=O)[C@H](C2CCN=C(N)N2)NC(=O)/C(=C/Nc2nc(-c3ccc(Br)cc3)cs2)NC1=O (stereo partly drawn) | 50 µg/mL | – | 12.5 µg/mL | 12.5 µg/mL | 3.13 µg/mL | 100 µg/mL | – | – | – | – | –
7 | C[C@@H]1NC(=O)C(N)CNC(=O)[C@H](C2CCN=C(N)N2)NC(=O)/C(=C/NC(N)=O)NC(=O)[C@H](CNC(=O)C[C@@H](N)CCCN)NC1=O.NCCC[C@H](N)CC(=O)NC[C@@H]1NC(=O)[C@H](CO)NC(=O)C(N)CNC(=O)[C@H](C2CCN=C(N)N2)NC(=O)/C(=C/NC(N)=O)NC1=O (stereo partly drawn) (H-[ξDap]S[Dap](β3hOrn)[ΔAla(Z-3-ureido)][X4]; lactam 1-C) | – | – | 100 µg/mL | > 1000 µg/mL | 50 µg/mL | 200 µg/mL | – | – | – | – | > 1000 µg/mL
8 | NCCC[C@H](N)CC(=O)NC[C@@H]1NC(=O)[C@H](CO)NC(=O)C(N)CNC(=O)[C@H](C2CCN=C(N)N2)NC(=O)/C(=C/NC(=O)Nc2ccc(C3CCCCC3)cc2)NC1=O (stereo partly drawn) (H-[ξDap]S[Dap](β3hOrn)[ΔDap(Z)]([CO-NH(4-cHex-phenyl)])[X4]; lactam 1-C) | 3.12 µg/mL (≈ 3.77 µM) | – | 1.56 µg/mL (≈ 1.89 µM) | 1.56 µg/mL (≈ 1.89 µM) | 0.39 µg/mL (≈ 0.472 µM) | 25 µg/mL (≈ 30.2 µM) | – | – | – | – | –
9 | C[C@@H]1NC(=O)C(N)CNC(=O)[C@H](C2CCN=C(N)N2)NC(=O)/C(=C/NC(=O)Nc2ccc(Cc3ccccc3)cc2)NC(=O)[C@H](CNC(=O)C[C@@H](N)CCCN)NC1=O.NCCC[C@H](N)CC(=O)NC[C@@H]1NC(=O)[C@H](CO)NC(=O)C(N)CNC(=O)[C@H](C2CCN=C(N)N2)NC(=O)/C(=C/NC(=O)Nc2ccc(Cc3ccccc3)cc2)NC1=O (stereo partly drawn) (H-[ξDap]S[Dap](β3hOrn)[ΔDap(Z)]([CO-X6])[X4]; lactam 1-C) | 6.25 µg/mL | – | 1.56 µg/mL | 3.12 µg/mL | 0.78 µg/mL | 12.5 µg/mL | – | – | – | – | –
10 | NCCC[C@H](N)CC(=O)NC[C@@H]1NC(=O)[C@H](CO)NC(=O)C(N)CNC(=O)[C@H](C2CCN=C(N)N2)NC(=O)/C(=C/NC(=O)Nc2ccc(N3CCCCC3)cc2)NC1=O (stereo partly drawn) (H-[ξDap]S[Dap](β3hOrn)[ΔDap(Z)]([CO-X7])[X4]; lactam 1-C) | 100 µg/mL (≈ 121 µM) | – | 3.12 µg/mL (≈ 3.77 µM) | 100 µg/mL (≈ 121 µM) | 1.56 µg/mL (≈ 1.88 µM) | 50 µg/mL (≈ 60.4 µM) | – | – | – | – | –
11 | C[C@@H]1NC(=O)C(N)CNC(=O)[C@H](C2CCN=C(N)N2)NC(=O)C(CNC(=O)Nc2ccc(I)c(Cl)c2)NC(=O)[C@H](CNC(=O)C[C@@H](N)CCCN)NC1=O.NCCC[C@H](N)CC(=O)NC[C@@H]1NC(=O)[C@H](CO)NC(=O)C(N)CNC(=O)[C@H](C2CCN=C(N)N2)NC(=O)C(CNC(=O)Nc2ccc(I)c(Cl)c2)NC1=O (stereo partly drawn) (H-[ξDap]S[Dap](β3hOrn)[ξDap]([CO-X5])[X4]; lactam 1-C) | 50 µg/mL | – | 3.12 µg/mL | 12.5 µg/mL | 0.78 µg/mL | 6.25 µg/mL | – | – | – | 7 mg/kg | –
12 | CN[C@H](CC(C)C)C(=O)N[C@H]1C(=O)N[C@@H](CC(N)=O)C(=O)N[C@H]2C(=O)N[C@H]3C(=O)N[C@H](C(=O)N[C@H](C(=O)O)c4cc(O)cc(O)c4-c4cc3ccc4O)[C@H](O)c3ccc(c(Cl)c3)Oc3cc2cc(c3O[C@@H]2O[C@H](CO)[C@@H](O)[C@H](O)[C@H]2O[C@H]2C[C@](C)(N)[C@H](O)[C@H](C)O2)Oc2ccc(cc2Cl)[C@H]1O [VANCOMYCIN] | > 100 µg/mL | – | 0.78 µg/mL (≈ 0.538 µM) | > 100 µg/mL | – | – | – | – | – | – | –
